Several values for one entry are separate records, joined by “and”; a condition that tells them apart may be missing. Equal values may be shown once.
Tested on: Rattus norvegicus
Experiment: Antiinflammatory activity in Wistar rat model of carrageenan-induced paw edema assessed as reduction in thickness of paw edema at 10 mg/kg, ip pretreated for 1 hr followed by carrageenan challenge and measured after 1 hr (reference value: 2.41 +/-0.05 mm)
Assay type: functional
Conditions: time 1 hr after carrageenan

Row | Compound | Activity
1 | COc1cc(/C=C/C(=O)/C=C(O)/C=C/c2ccc(OC(=O)[C@H](C)N)c(OC)c2)ccc1OC(=O)[C@H](C)N.Cl.Cl | 1.51 mm

Tested on: Rattus norvegicus
Experiment: Anti-inflammatory activity in Wistar rat assessed as inhibition of carrageenan-induced paw edema at 10 mg/kg, ip pretreated for 1 hr followed by carrageenan challenge and measured after 1 hr relative to control (reference value: 0.00 +/-0.02 %)
Assay type: functional
Conditions: time 2 hrs

Row | Compound | inhibition in vivo at 10 mg/kg
2 | COc1cc(/C=C/C(=O)/C=C(O)/C=C/c2ccc(OC(=O)[C@H](C)N)c(OC)c2)ccc1OC(=O)[C@H](C)N.Cl.Cl | 37%

Tested on: Rattus norvegicus
Experiment: Antiinflammatory activity in Wistar rat model of carrageenan-induced paw edema assessed as reduction in thickness of paw edema at 10 mg/kg, ip pretreated for 1 hr followed by carrageenan challenge and measured after 2 hrs (reference value: 2.06 +/-0.09 mm)
Assay type: functional
Conditions: time 3 hrs

Row | Compound | Activity
3 | COc1cc(/C=C/C(=O)/C=C(O)/C=C/c2ccc(OC(=O)[C@H](C)N)c(OC)c2)ccc1OC(=O)[C@H](C)N.Cl.Cl | 1.19 mm

Tested on: Rattus norvegicus
Experiment: Anti-inflammatory activity in Wistar rat assessed as inhibition of carrageenan-induced paw edema at 10 mg/kg, ip pretreated for 1 hr followed by carrageenan challenge and measured after 2 hr relative to control (reference value: 0.00 +/-0.03 %)
Assay type: functional
Conditions: time 3 hrs

Row | Compound | inhibition in vivo at 10 mg/kg
4 | COc1cc(/C=C/C(=O)/C=C(O)/C=C/c2ccc(OC(=O)[C@H](C)N)c(OC)c2)ccc1OC(=O)[C@H](C)N.Cl.Cl | 42%

Tested on: Rattus norvegicus
Experiment: Antiinflammatory activity in Wistar rat model of carrageenan-induced paw edema assessed as reduction in thickness of paw edema at 10 mg/kg, ip pretreated for 1 hr followed by carrageenan challenge and measured after 3 hrs (reference value: 1.79 +/-0.07 mm)
Assay type: functional
Conditions: time 4 hrs

Row | Compound | Activity
5 | COc1cc(/C=C/C(=O)/C=C(O)/C=C/c2ccc(OC(=O)[C@H](C)N)c(OC)c2)ccc1OC(=O)[C@H](C)N.Cl.Cl | 0.85 mm

Tested on: Rattus norvegicus
Experiment: Anti-inflammatory activity in Wistar rat assessed as inhibition of carrageenan-induced paw edema at 10 mg/kg, ip pretreated for 1 hr followed by carrageenan challenge and measured after 3 hr relative to control (reference value: 0.00 +/-0.1 %)
Assay type: functional
Conditions: time 4 hrs

Row | Compound | inhibition in vivo at 10 mg/kg
6 | COc1cc(/C=C/C(=O)/C=C(O)/C=C/c2ccc(OC(=O)[C@H](C)N)c(OC)c2)ccc1OC(=O)[C@H](C)N.Cl.Cl | 53%

Tested on: Rattus norvegicus
Experiment: Antiinflammatory activity in Wistar rat model of carrageenan-induced paw edema assessed as reduction in thickness of paw edema at 10 mg/kg, ip pretreated for 1 hr followed by carrageenan challenge and measured after 4 hrs (reference value: 1.40 +/-0.10 mm)
Assay type: functional
Conditions: time 5 hrs

Row | Compound | Activity
7 | COc1cc(/C=C/C(=O)/C=C(O)/C=C/c2ccc(OC(=O)[C@H](C)N)c(OC)c2)ccc1OC(=O)[C@H](C)N.Cl.Cl | 0.47 mm

Tested on: Rattus norvegicus
Experiment: Anti-inflammatory activity in Wistar rat assessed as inhibition of carrageenan-induced paw edema at 10 mg/kg, ip pretreated for 1 hr followed by carrageenan challenge and measured after 4 hr relative to control (reference value: 0.00 +/-0.4 %)
Assay type: functional
Conditions: time 5 hrs

Row | Compound | inhibition in vivo at 10 mg/kg
8 | COc1cc(/C=C/C(=O)/C=C(O)/C=C/c2ccc(OC(=O)[C@H](C)N)c(OC)c2)ccc1OC(=O)[C@H](C)N.Cl.Cl | 66%

Tested on: Rattus norvegicus
Experiment: Antiinflammatory activity in Wistar rat model of carrageenan-induced paw edema assessed as reduction in thickness of paw edema at 10 mg/kg, ip pretreated for 1 hr followed by carrageenan challenge and measured after 24 hrs (reference value: 0.83 +/-0.08 mm)
Assay type: functional
Conditions: time 25 hrs

Row | Compound | Activity
9 | COc1cc(/C=C/C(=O)/C=C(O)/C=C/c2ccc(OC(=O)[C@H](C)N)c(OC)c2)ccc1OC(=O)[C@H](C)N.Cl.Cl | 0.7 mm

Tested on: Rattus norvegicus
Experiment: Anti-inflammatory activity in Wistar rat assessed as inhibition of carrageenan-induced paw edema at 10 mg/kg, ip pretreated for 1 hr followed by carrageenan challenge and measured after 24 hr relative to control (reference value: 0.00 +/-0.3 %)
Assay type: functional
Conditions: time 25 hrs

Row | Compound | inhibition in vivo at 10 mg/kg
10 | COc1cc(/C=C/C(=O)/C=C(O)/C=C/c2ccc(OC(=O)[C@H](C)N)c(OC)c2)ccc1OC(=O)[C@H](C)N.Cl.Cl | 16%

Tested on: Rattus norvegicus
Experiment: Anti-inflammatory activity in Wistar rat assessed as inhibition of carrageenan-induced paw edema at 10 mg/kg, ip pretreated for 1 hr followed by carrageenan challenge and measured after 4 hr relative to indomethacin
Assay type: functional
Conditions: time 5 hrs

Row | Compound | inhibition in vivo at 10 mg/kg
11 | COc1cc(/C=C/C(=O)/C=C(O)/C=C/c2ccc(OC(=O)[C@H](C)N)c(OC)c2)ccc1OC(=O)[C@H](C)N.Cl.Cl | 76%

Tested on: Splenocyte
Experiment: Immunomodulatory activity in Swiss albino mouse splenocytes assessed as cell viability at 10 uM by measuring stimulation index incubated for 72 hrs in presence of mitogenic stimulus phytohaemagglutinin by MTT assay (reference value: 1.00 +/- 0.24)
Assay type: functional
Conditions: not given

Row | Compound | Activity_index
12 | COc1cc(/C=C/C(=O)/C=C(O)/C=C/c2ccc(OC(=O)[C@H](C)N)c(OC)c2)ccc1OC(=O)[C@H](C)N.Cl.Cl | 1.14

Tested on: Splenocyte
Experiment: Immunomodulatory activity in Swiss albino mouse splenocytes assessed as cell viability at 10 uM by measuring inhibition of stimulation index incubated for 72 hrs in presence of mitogenic stimulus phytohaemagglutinin by MTT assay relative to indomethacin
Assay type: functional
Conditions: read-out: Activity

Row | Compound | viability at 10 µM
13 | COc1cc(/C=C/C(=O)/C=C(O)/C=C/c2ccc(OC(=O)[C@H](C)N)c(OC)c2)ccc1OC(=O)[C@H](C)N.Cl.Cl | 106%

Tested on: Peritoneal macrophage
Experiment: Antiinflammatory activity in […] mouse Peritoneal macrophages assessed as reduction in LPS-induced NO production by measuring reduction in stimulation index at 10 uM preincubated for 1 hr followed by LPS stimulation measured after 24 hrs by Griess method (reference value: 27.31 +/- 2.56 uM)
Assay type: functional
Conditions: time 25 hrs

Row | Compound | Activity
14 | COc1cc(/C=C/C(=O)/C=C(O)/C=C/c2ccc(OC(=O)[C@H](C)N)c(OC)c2)ccc1OC(=O)[C@H](C)N.Cl.Cl | 14.68 µM

Tested on: Peritoneal macrophage
Experiment: Antiinflammatory activity in […] mouse Peritoneal macrophages assessed as inhibition of LPS-induced NO production at 10 uM preincubated for 1 hr followed by LPS stimulation measured after 24 hrs by Griess method relative to control (reference value: 0.0 %)
Assay type: functional
Parameters: scale not given: the % may be the effect or the level left
Conditions: time 25 hrs

Row | Compound | Activity
15 | COc1cc(/C=C/C(=O)/C=C(O)/C=C/c2ccc(OC(=O)[C@H](C)N)c(OC)c2)ccc1OC(=O)[C@H](C)N.Cl.Cl | 46.24%

Tested on: Staphylococcus aureus
Experiment: Antibacterial activity against Staphylococcus aureus ATCC 25923 incubated for 18 hrs by agar dilution method
Assay type: functional
Conditions: not given

Row | MIC | Compound
16 | 0.5 µg/mL and 0.857 µM | COc1cc(/C=C/C(=O)/C=C(O)/C=C/c2ccc(OC(=O)[C@H](C)N)c(OC)c2)ccc1OC(=O)[C@H](C)N.Cl.Cl

Tested on: Streptococcus pyogenes
Experiment: Antibacterial activity against Streptococcus pyogenes ATCC 19615 incubated for 18 hrs by agar dilution method
Assay type: functional
Conditions: not given

Row | MIC | Compound
17 | 0.5 µg/mL and 0.857 µM | COc1cc(/C=C/C(=O)/C=C(O)/C=C/c2ccc(OC(=O)[C@H](C)N)c(OC)c2)ccc1OC(=O)[C@H](C)N.Cl.Cl

Tested on: Salmonella typhimurium
Experiment: Antibacterial activity against Salmonella typhimurium ATCC 19430 incubated for 18 hrs by agar dilution assay
Assay type: functional, Salmonella enterica subsp. enterica serovar Typhimurium
Conditions: Salmonella enterica

Row | MIC | Compound
18 | 0.5 µg/mL and 0.857 µM | COc1cc(/C=C/C(=O)/C=C(O)/C=C/c2ccc(OC(=O)[C@H](C)N)c(OC)c2)ccc1OC(=O)[C@H](C)N.Cl.Cl

Tested on: Pseudomonas aeruginosa
Experiment: Antibacterial activity against Pseudomonas aeruginosa ATCC 27853 incubated for 18 hrs by agar dilution assay
Assay type: functional
Conditions: not given

Row | MIC | Compound
19 | 0.25 µg/mL and 0.428 µM | COc1cc(/C=C/C(=O)/C=C(O)/C=C/c2ccc(OC(=O)[C@H](C)N)c(OC)c2)ccc1OC(=O)[C@H](C)N.Cl.Cl

Tested on: Candida albicans
Experiment: Antifungal activity against Candida albicans incubated for 18 to 24 hrs by CLSI method
Assay type: functional
Conditions: time 18-24 hrs

Row | MIC | Compound
20 | 0.5 µg/mL and 0.857 µM | COc1cc(/C=C/C(=O)/C=C(O)/C=C/c2ccc(OC(=O)[C@H](C)N)c(OC)c2)ccc1OC(=O)[C@H](C)N.Cl.Cl

Tested on: A549
Experiment: Antiproliferative activity against human A549 cells assessed as inhibition of cell growth after 72 hrs by MTT assay
Assay type: functional, cell-based
Conditions: A549, 72 h

Row | IC50 | Compound
21 | 21.7 µM | COc1cc(/C=C/C(=O)/C=C(O)/C=C/c2ccc(OC(=O)[C@H](C)N)c(OC)c2)ccc1OC(=O)[C@H](C)N.Cl.Cl

Tested on: MCF7
Experiment: Antiproliferative activity against human MCF7 cells assessed as inhibition of cell growth after 72 hrs by MTT assay
Assay type: functional, cell-based
Conditions: MCF7, 72 h

Row | IC50 | Compound
22 | 10.7 µM | COc1cc(/C=C/C(=O)/C=C(O)/C=C/c2ccc(OC(=O)[C@H](C)N)c(OC)c2)ccc1OC(=O)[C@H](C)N.Cl.Cl

Tested on: PC-3
Experiment: Antiproliferative activity against human PC3 cells assessed as inhibition of cell growth after 72 hrs by MTT assay
Assay type: functional, cell-based
Conditions: PC-3, 72 h

Row | IC50 | Compound
23 | 31.5 µM | COc1cc(/C=C/C(=O)/C=C(O)/C=C/c2ccc(OC(=O)[C@H](C)N)c(OC)c2)ccc1OC(=O)[C@H](C)N.Cl.Cl

Reference: ChEMBL document CHEMBL4765295, “Synthesis, pharmacological profile and 2D-QSAR studies of curcumin-amino acid conjugates as potential drug candidates” (Eur J Med Chem, 2020)
